Test results published in PMC8961551, “Potential Anticancer Agents against Melanoma Cells Based on an As-Synthesized Thiosemicarbazide Derivative” (Biomolecules, 2022).
Read-outs that look alike come from different tables or passages of the source.

Columns and labels:
[1] = system: BJ normal fibroblast cell line; assay: MTT cytotoxicity, BJ normal fibroblasts; type: cell-based, human; conditions: MTT test, 24 h treatment, BJ normal fibroblasts, concentration range 10-250 µM, read-out: IC50 BJ
Description: (§1) Biological studies were performed on human malignant melanoma G-361 (ATCC CRL-1424) cell lines and human fibroblast BJ (ATCC® CRL-2522™) cell lines purchased from the American Type Culture Collection (ATCC, Manassas, VA USA). The G-361 cell lines were maintained in McCoy’s medium (Corning, NY, USA), and the fibroblast BJ cell line was cultured in EMEM (Corning, NY, USA). All media were supplemented with 10% heat-inactivated fetal bovine serum (PAN-Biotech, Aidenbach, Germany), 100 U/mL penicillin, 100 μg/mL streptomycin and 0.25 μg/mL amphotericin B (Sigma-Aldrich, St. Louis, MO, USA). Cultures were maintained at 37 °C in a humidified atmosphere of 95% air and 5% CO2. The experiments were performed using cells from passage 5 to 10.
(§2) The cytotoxicity of the new compounds was evaluated against both the G-361 and BJ cell lines. Cells were seeded into 96-well plates at a density of 3 × 10^4 cells/well and 2 × 10^4 cells/well. After 24 h of incubation, when 70–80% confluence was reached, the culture medium was removed and replaced with the fresh one containing the tested compounds in the concentration range of 10, 25, 50, 75, 100, 125 and 250 μM. Cells were cultured at 37 °C in the presence of 5% air with CO2 for another 24 h. The cytotoxicity of the test compounds was evaluated by the MTT colorimetric assay, based on the ability of live cells to convert yellow soluble tetrazolium salts (3-[4,5-dimethylthiazol-2-yl]- 2,5-diphenyltetrazolium bromide, MTT) to purple insoluble formazan by cellular dehydrogenase. After 24 h of incubation with solutions of the test compounds, 4 mg/mL MTT solution (Thermo Scientific, Waltham, MA, USA) was added to the cell cultures and incubation was continued for 4 h at 37 °C. The MTT medium was then removed, and the resulting crystals were dissolved in 200 µL of DMSO. The solution was measured for absorbance at 570 nm using a Power Wave xs spectrophotometric plate reader, BioTek Instruments (Winooski, VT, USA). The experiment was performed three times with three replicates for each concentration. IC50 values were determined using the AAT Bioquest IC50 calculator.

G-361 melanoma = assay: MTT cytotoxicity, G-361 melanoma; type: cell-based, human; conditions: for IC50: MTT test, 24 h treatment, G-361 melanoma; for cytotoxic to melanoma cells (MTT test): G-361, concentration range used
Description: as §1, §2

RP-TLC lipophilicity = type: physicochemical; conditions: for RMW (chromatographic lipophilicity parameter): RP-18 plates, methanol-water 65-95%, extrapolated to 0% methanol; for -S TLC (slope of linear equation): Table S3
Description: RP-TLC analysis was performed using RP-18 TLC silica gel 60 F254 plates (10 × 20 cm, Merck, Darmstadt, Germany) with a DS-II chromatographic horizontal chamber (CHROMDES, Lublin, Poland). The mobile phase consisted of methanol (POCH, Gliwice, Poland) and water with the following concentrations of methanol: 65–95% (%, v/v), with a concentration change every 5%. After drying, the spots were observed under a UV lamp with a wavelength of 254 nm.

RP-HPLC lipophilicity = type: physicochemical; conditions: for logkW (chromatographic lipophilicity parameter): Kinetex C18, methanol-water 55-80%, extrapolated to 0% methanol; for -S HPLC (slope of linear equation): Table S3
Description: RP-HPLC analysis was performed using a Merck-Hitachi LaChrom Elite System (Merck, Darmstadt, Germany) with diode array detector L-2455, thermostat L-2300, pump L-2130 and autosampler L-2200 with a Kinetex C18 (5µm; 150 × 4,6mm) chromatographic column (Phenomenex, Torrance, USA) as the stationary phase. The mobile phase consisted of methanol (Merck, Darmstadt, Germany) and water (double-distilled), which was degassed by use of the built-in membrane degasser. Subsequently, 5 μL methanolic solution (0.1%; m/v) of the selected samples was applied to the chromatographic column by use of a Hitachi L-2200 autosampler (LaChrom Elite, Hitachi-Merck, Darmstadt, Germany). The analysis was performed with a flow rate of 0.7 mL min^−1 in isocratic mode using various concentrations of organic modifier (methanol) in binary polar mobile phases; percentages of methanol in water were 55–80% (%, v/v) and changed by 5% per step. Chromatograms were detected at 254 nm and the temperature of the column was 25 °C. All experiments were repeated in triplicate and the final results were taken to be the arithmetic means. Dead time was measured using uracil (Calbiochem. Merck, Darmstadt, Germany).

Row | Compound | IC50 [1] [µM] | IC50 (G-361 melanoma) [µM] | IC50 ([1]; Homo sapiens, Fibroblast) [µM] | RMW (chromatographic lipophilicity parameter) (RP-TLC lipophilicity) | -S TLC (slope of linear equation) (RP-TLC lipophilicity) | IC50 (G-361 melanoma; Homo sapiens) [µM] | logkW (chromatographic lipophilicity parameter) (RP-HPLC lipophilicity) | -S HPLC (slope of linear equation) (RP-HPLC lipophilicity) | cytotoxic to melanoma cells (MTT test) (G-361 melanoma)
1 | 1-[[2-(2,4-Dichlorophenoxy)acetyl]amino]-3-[4-[[[2-(2,4-dichlorophenoxy)acetyl]amino]carbamoylamino]phenyl]thiourea [PK13] | > 250 | > 250 |  |  |  |  |  |  | 
2 | O=C(COc1ccc(Cl)cc1Cl)NNC(=S)Nc1ccccc1F [PK1, 1-(2,4-dichlorophenoxy)acetyl-4-(2-fluorophenyl)thiosemicarbazide] |  |  | > 250 | 2.6706 | 3.1923 | > 250 | 3.4437 | 4.9238 | 
3 | O=C(COc1ccc(Cl)cc1Cl)NNC(=S)Nc1ccc([N+](=O)[O-])cc1 [PK3, 1-(2,4-dichlorophenoxy)acetyl-4-(4-nitrophenyl)thiosemicarbazide] | > 250 | > 250 |  | 2.4459 | 2.9474 |  | 2.7667 | 3.8522 | 
4 | O=C(COc1ccc(Cl)cc1Cl)NNC(=S)Nc1cccc(I)c1 [PK4, 1-(2,4-dichlorophenoxy)acetyl-4-(3-iodophenyl)thiosemicarbazide] | > 250 | > 250 |  |  |  |  |  |  | 
5 | O=C(COc1ccc(Cl)cc1Cl)NNC(=S)Nc1ccc(F)cc1 [PK5, 1-(2,4-dichlorophenoxy)acetyl-4-(4-fluorophenyl)thiosemicarbazide] | > 250 | > 250 |  | 2.7612 | 3.4335 |  | 3.8993 | 5.5119 | 
6 | O=C(COc1ccc(Cl)cc1Cl)NNC(=S)Nc1ccc(I)cc1 [PK7, 1-(2,4-dichlorophenoxy)acetyl-4-(4-iodophenyl)thiosemicarbazide] |  |  | 216 ± 76 | 3.8527 | 4.4553 | 99 ± 4 | 4.5363 | 5.9005 | cytotoxic
7 | O=C(COc1ccc(Cl)cc1Cl)NNC(=S)Nc1cccc(Br)c1 [PK8, 1-(2,4-dichlorophenoxy)acetyl-4-(3-bromophenyl)thiosemicarbazide] | > 250 | > 250 |  |  |  |  |  |  | 
8 | O=C(COc1ccc(Cl)cc1Cl)NNC(=S)Nc1cccc(F)c1 [PK10, 1-(2,4-dichlorophenoxy)acetyl-4-(3-fluorophenyl)thiosemicarbazide] | 223 ± 7 | 218 ± 5.34 |  |  |  |  |  |  | cytotoxic
9 | O=C(COc1ccc(Cl)cc1Cl)NNC(=S)Nc1ccccc1Br [PK11, 1-(2,4-dichlorophenoxy)acetyl-4-(2-bromophenyl)thiosemicarbazide] | 217 ± 64.3 | 162 ± 2 |  | 2.7832 | 3.3663 |  | 3.93 | 5.3438 | cytotoxic
10 | O=C(COc1ccc(Cl)cc1Cl)NNC(=S)Nc1ccc(Br)cc1 [PK12, 1-(2,4-dichlorophenoxy)acetyl-4-(4-bromophenyl)thiosemicarbazide] | 189 ± 7 |  |  | 3.5706 | 4.1984 |  | 4.3897 | 5.8565 | cytotoxic
